# Reference: patent publication US12195427B2, “MASP-2 inhibitors and methods of use” (priority 2018, dated 2025)
# Biological target: MASP-2 CCP2-SP (Homo sapiens (Human), UniProt O00187)
# Assay: MASP-2 co-crystallization, X-ray crystallography and structure analysis (H-bonds, van der Waals contacts);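 on Ligand-pharmacophore element distance, pharmacophore element C2: distance from averaged pharmacophore element to bound ligand; missing value means element absent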;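 on Ligand-pharmacophore element distance, pharmacophore element C3: distance from averaged pharmacophore element to bound ligand; missing value means element absent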;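 on Ligand-pharmacophore element distance, pharmacophore element C4: distance from averaged pharmacophore element to bound ligand; missing value means element absent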;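 on Ligand-pharmacophore element distance, pharmacophore element C5: distance from averaged pharmacophore element to bound ligand; missing value means element absent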
# Set-up: van der Waals contact distance, MASP-2 HIS 483 atom CD2 / van der Waals contact distance, MASP-2 HIS 483 atom NE2 / van der Waals contact distance, SER 654 C to compound atom / van der Waals contact distance, SER 654 O to compound atom / van der Waals contact distance, TRP 655 C to compound atom / van der Waals contact distance, MASP-2 GLY 528 atom CA / van der Waals contact distance TRP 655 atom CZ3 / van der Waals contact distance TRP 655 atom N / van der Waals contact distance TRP 655 atom CE3 / van der Waals contact distance GLY 656 atom C / van der Waals contact distance GLY 656 atom CA / van der Waals contact distance GLY 656 atom O / van der Waals contact distance, MASP-2 TYR 607 atom CD1 / van der Waals contact distance, MASP-2 PRO 606 atom O / d(C3,CA1) / d(CA1,N1)2 / d(H4,O1) / d(H4,O2) / d(O1,O2) / d(CA1,O2) / d(CA6,O1) / d(CA6,O2) / d(CA1,C5) / d(O2,H3) / d(N2,C2) / d(CA5,N2) / d(N2,C4) / d(N2,C6) / d(N2,CA3) / d(N2,O3) / d(O4,H2): unit not given beside the values
# Settings: for Ligand-pharmacophore element distance, pharmacophore element C2 / Ligand-pharmacophore element distance, pharmacophore element C3 / Ligand-pharmacophore element distance, pharmacophore element C4 / Ligand-pharmacophore element distance, pharmacophore element C5 / Ligand-pharmacophore element distance, pharmacophore element C6 / Ligand-pharmacophore element distance, pharmacophore element C7 / Ligand-pharmacophore element distance, pharmacophore element CA1 / Ligand-pharmacophore element distance, pharmacophore element CA2 / Ligand-pharmacophore element distance, pharmacophore element CA3 / Ligand-pharmacophore element distance, pharmacophore element CA4 / Ligand-pharmacophore element distance, pharmacophore element CA5 / Ligand-pharmacophore element distance, pharmacophore element CA6: Table A4-1; for d(CA1,C5) / d(CA1,O1) / d(CA1,O2) / d(CA1,O4) / d(H4,O1) / d(H4,O2) / d(O1,O2) / d(O4,H2): Table A5-1 pharmacophore: distance between elements, S2/S1 region; for d(N2,C2) / d(N2,CA2) / d(O2,H3) / d(O2,N2): Table A5-2 pharmacophore distance, S3/S4 region; for a(C5, CA1, O1) / a(CA1, O1, O2) / a(CA1, O4, H2) / a(O1, CA1, O4) / a(O1, O2, H4): Table A6-1 pharmacophore angle; for a(O1, O2, H3) / a(O1, O2, N2) / a(O2, N2, C2) / a(O2, N2, CA2): Table A6-2 pharmacophore angle; for Pharmacophore torsion angle a(O1, O2, N2, CA2): Table A7-2
# Excerpt: This example illustrates the preparation of recombinant MASP-2 protein, based on UniProt O00187, human mannan-binding lectin serine protease 2. Expression constructs for human MASP-2 CCP2-SP and CCP2-SP-6HIS were generated for recombinant expression in E. coli cells.
# Typically, crystallization hits were obtained by screening against […] 96-well crystallization reagent kits (GRAS6, GRAS2, Hampton Research; MORPHEUS, Molecular Dimensions; Wizard 1&2 Cryo, Rigaku Reagents) and crystal growth was inspected by optical microscopy. Crystals were used directly or further optimized for X-ray diffraction. Crystals were captured with cryogenic loops and dipped into liquid nitrogen directly or cryoprotected with a 20% glycerol in crystallization formulation before flash-cooling in liquid nitrogen.
# Thereafter crystals are transferred once or twice for soaking within the crystallization solution containing the MASP-2 inhibitor.
# Crystals were diffracted with synchrotron X-rays of […] and X-ray diffraction datasets were collected at beamlines SSRL BL9-2, BL14-1, BL12-2 as well as ALS sector 5 using Dectris Pilatus and Eiger detectors. Structures were determined by molecular replacement using portions of the structure 1Q3X as search models and partially refined with Buster 2.10.2 or Refmac 5.8. […] When multiple ligand poses were observed, for instance arising from multiple molecules in the asymmetric unit or refined dual poses within the same molecule, only one pose was selected and analyzed.
# LigPlot+ calls these ‘nonbonded contacts’ or ‘hydrophobic contacts’. Despite the name, there are atom pairings that include possible H-bonds. Thus, in some instances, the Table A2 also contains H-bond interactions.
# [1] = Table A7-1, between pharmacophore elements of the bound compound
# [2] = between pharmacophore elements of the bound compound
# MASP-2 CCP2-SP, sequence (O00187 445-686): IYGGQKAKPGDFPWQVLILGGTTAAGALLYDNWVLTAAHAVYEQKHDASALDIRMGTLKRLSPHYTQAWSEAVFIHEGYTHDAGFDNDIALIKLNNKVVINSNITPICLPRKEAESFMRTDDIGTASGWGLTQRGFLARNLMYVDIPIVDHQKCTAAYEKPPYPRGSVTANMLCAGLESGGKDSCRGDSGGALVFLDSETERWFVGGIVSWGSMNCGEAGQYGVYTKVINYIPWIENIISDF
# MASP-2 CCP2-SP, sequence (O00187 364-432 partner): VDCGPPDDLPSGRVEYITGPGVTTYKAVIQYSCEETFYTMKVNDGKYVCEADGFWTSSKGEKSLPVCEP
Compound,"Ligand-pharmacophore element distance, pharmacophore element C2","Ligand-pharmacophore element distance, pharmacophore element C3","Ligand-pharmacophore element distance, pharmacophore element C4","Ligand-pharmacophore element distance, pharmacophore element C5","Ligand-pharmacophore element distance, pharmacophore element C6","Ligand-pharmacophore element distance, pharmacophore element C7","Ligand-pharmacophore element distance, pharmacophore element CA1","Ligand-pharmacophore element distance, pharmacophore element CA2","Ligand-pharmacophore element distance, pharmacophore element CA3","Ligand-pharmacophore element distance, pharmacophore element CA4","Ligand-pharmacophore element distance, pharmacophore element CA5","Ligand-pharmacophore element distance, pharmacophore element CA6","d(CA1,C5)","d(CA1,O1)","d(CA1,O2)","d(CA1,O4)","d(H4,O1)","d(H4,O2)","d(O1,O2)","d(O4,H2)",also measured
C[C@H](NC(=O)[C@H]1C[C@@H](c2ccccc2)CCN1)C(=O)NCc1cc(Cl)ccc1O.Cl [1078_13],0.58,0,0,0.47,0,0,1.62,0.73,0,0,0,0,3.12,4.37,4.66,2.76,3.14,3.66,3.25,0.98,"d(N2,C2): 1.47; d(N2,CA2): 5.61; d(O2,H3): 2.11; d(O2,N2): 2.79; a(C5, CA1, O1): 162.99; a(CA1, O1, O2): 115.77; a(CA1, O4, H2): 129.33; a(O1, CA1, O4): 65.06; a(O1, O2, H4): 123.59; a(O1, O2, H3): 135.66; a(O1, O2, N2): 146.15; a(O2, N2, C2): 127.57; a(O2, N2, CA2): 154.39; Pharmacophore torsion angle a(C5, CA1, O1, H4) [1]: −7.66; Pharmacophore torsion angle a(H4, O1, O2, H3) [1]: −157.30; Pharmacophore torsion angle a(H4, O1, O2, N2) [1]: −162.99; Pharmacophore torsion angle a(O1, H4, O2, CA1) [1]: −78.80; Pharmacophore torsion angle a(O1, O2, N2, C2) [1]: 118.91; Pharmacophore torsion angle a(O1, O2, N2, CA2) [2]: 137.37"
C[C@H](NC(=O)[C@H]1C[C@@H](c2ccccc2)CCN1)C(=O)NCc1cc(Cl)ccc1O.Cl [1078_14],0.74,0,0,0.47,0,0,1.61,0.8,0,0,0,0,3.13,4.46,4.47,2.75,2.48,2.59,2.91,0.97,"d(N2,C2): 1.45; d(N2,CA2): 5.69; d(O2,H3): 2.58; d(O2,N2): 2.77; a(C5, CA1, O1): 159.36; a(CA1, O1, O2): 109.29; a(CA1, O4, H2): 126.58; a(O1, CA1, O4): 70.42; a(O1, O2, H4): 109.80; a(O1, O2, H3): 144.55; a(O1, O2, N2): 148.03; a(O2, N2, C2): 129.57; a(O2, N2, CA2): 155.65; Pharmacophore torsion angle a(C5, CA1, O1, H4) [1]: 20.44; Pharmacophore torsion angle a(H4, O1, O2, H3) [1]: −134.39; Pharmacophore torsion angle a(H4, O1, O2, N2) [1]: −121.21; Pharmacophore torsion angle a(O1, H4, O2, CA1) [1]: −62.09; Pharmacophore torsion angle a(O1, O2, N2, C2) [1]: 126.74; Pharmacophore torsion angle a(O1, O2, N2, CA2) [2]: 134.23"
C[C@H](NC(=O)[C@H]1C[C@@H](c2ccccc2)CCN1)C(=O)NCc1cc(Cl)ccc1O.Cl [1078_15],0.81,0,0,0.43,0,0,1.56,0.65,0,0,0,0,3.13,4.59,4.59,2.74,2.66,2.49,2.93,0.97,"d(N2,C2): 1.45; d(N2,CA2): 5.66; d(O2,H3): 2.97; d(O2,N2): 2.84; a(C5, CA1, O1): 160.41; a(CA1, O1, O2): 108.62; a(CA1, O4, H2): 127.31; a(O1, CA1, O4): 65.89; a(O1, O2, H4): 110.90; a(O1, O2, H3): 143.22; a(O1, O2, N2): 147.42; a(O2, N2, C2): 124.17; a(O2, N2, CA2): 155.02; Pharmacophore torsion angle a(C5, CA1, O1, H4) [1]: 19.98; Pharmacophore torsion angle a(H4, O1, O2, H3) [1]: −124.63; Pharmacophore torsion angle a(H4, O1, O2, N2) [1]: −117.88; Pharmacophore torsion angle a(O1, H4, O2, CA1) [1]: −64.96; Pharmacophore torsion angle a(O1, O2, N2, C2) [1]: 139.14; Pharmacophore torsion angle a(O1, O2, N2, C2)2 [1]: 139.34; Pharmacophore torsion angle a(O1, O2, N2, CA2) [2]: 141.63"
C[C@H](NC(=O)[C@H]1C[C@@H](c2ccccc2)CCN1)C(=O)NCc1cc(Cl)ccc1O.Cl [1078_16],0.64,0,0,0.42,0,0,1.49,0.49,0,0,0,0,3.13,4.42,4.54,2.74,2.20,2.69,3.11,0.97,"d(N2,C2): 1.49; d(N2,CA2): 5.80; d(O2,H3): 2.96; d(O2,N2): 2.90; a(C5, CA1, O1): 161.46; a(CA1, O1, O2): 112.44; a(CA1, O4, H2): 126.68; a(O1, CA1, O4): 67.40; a(O1, O2, H4): 101.76; a(O1, O2, H3): 140.06; a(O1, O2, N2): 144.54; a(O2, N2, C2): 122.62; a(O2, N2, CA2): 154.31; Pharmacophore torsion angle a(C5, CA1, O1, H4) [1]: 14.30; Pharmacophore torsion angle a(H4, O1, O2, H3) [1]: −119.50; Pharmacophore torsion angle a(H4, O1, O2, N2) [1]: −111.94; Pharmacophore torsion angle a(O1, H4, O2, CA1) [1]: −58.07; Pharmacophore torsion angle a(O1, O2, N2, C2) [1]: 136.30; Pharmacophore torsion angle a(O1, O2, N2, CA2) [2]: 139 28"
